Test results reported in ChEMBL document CHEMBL4507292 (2021).
pKi: −log10 of the molar value.

Legend:
[1] = target: Alpha-1B adrenergic receptor (Homo sapiens) (UniProt P35368); details: Compound concentration 10.0 uM
[2] = target: 5'-AMP-activated protein kinase catalytic subunit alpha-1 (Homo sapiens) (UniProt Q13131); details: Compound concentration 1000.0 nM
[3] = target: Homeodomain-interacting protein kinase 2 (Homo sapiens) (UniProt Q9H2X6); details: Compound concentration 1000.0 nM
[4] = target: T1, Alpha-2C adrenergic receptor (Homo sapiens) (UniProt P18825); details: Compound concentration 10.0 uM
T1 sequence (whole entry): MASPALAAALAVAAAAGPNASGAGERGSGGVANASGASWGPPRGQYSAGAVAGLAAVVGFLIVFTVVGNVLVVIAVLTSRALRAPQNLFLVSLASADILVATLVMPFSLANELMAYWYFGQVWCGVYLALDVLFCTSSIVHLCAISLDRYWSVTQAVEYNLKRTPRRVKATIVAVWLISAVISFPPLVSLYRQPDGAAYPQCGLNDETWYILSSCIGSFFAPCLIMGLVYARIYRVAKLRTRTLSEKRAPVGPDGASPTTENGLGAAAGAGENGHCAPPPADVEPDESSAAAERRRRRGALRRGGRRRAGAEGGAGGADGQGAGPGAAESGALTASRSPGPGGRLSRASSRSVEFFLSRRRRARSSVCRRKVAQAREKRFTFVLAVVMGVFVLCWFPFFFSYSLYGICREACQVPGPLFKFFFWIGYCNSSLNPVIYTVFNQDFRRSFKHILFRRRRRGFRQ

[5] = target: Non-receptor tyrosine-protein kinase TYK2 (Homo sapiens) (UniProt P29597); details: Compound concentration 1000.0 nM
[6] = target: Mitogen-activated protein kinase 8 (Homo sapiens) (UniProt P45983); details: Compound concentration 1000.0 nM
[7] = target: Histamine H3 receptor (Homo sapiens) (UniProt Q9Y5N1); details: Compound concentration 10.0 uM
[8] = target: Serine/threonine-protein kinase Nek4 (Homo sapiens) (UniProt P51957); details: Compound concentration 1000.0 nM
[9] = target: NUAK family SNF1-like kinase 1 (Homo sapiens) (UniProt O60285); details: Compound concentration 1000.0 nM
[10] = target: Eukaryotic translation initiation factor 2-alpha kinase 1 (Homo sapiens) (UniProt Q9BQI3); details: Compound concentration 1000.0 nM
[11] = target: Serine/threonine-protein kinase PLK3 (Homo sapiens) (UniProt Q9H4B4); details: Compound concentration 1000.0 nM
[12] = target: Serine/threonine-protein kinase tousled-like 1 (Homo sapiens) (UniProt Q9UKI8); details: Compound concentration 1000.0 nM
[13] = target: LIM domain kinase 1 (Homo sapiens) (UniProt P53667); details: Compound concentration 1000.0 nM
[14] = target: LIM domain kinase 2 (Homo sapiens) (UniProt P53671); details: Compound concentration 1000.0 nM
[15] = target: Serine/threonine-protein kinase Nek10 (Homo sapiens) (UniProt Q6ZWH5); details: Compound concentration 1000.0 nM
[16] = target: Atypical kinase COQ8A, mitochondrial (Homo sapiens) (UniProt Q8NI60); details: Compound concentration 1000.0 nM
[17] = target: Aurora kinase C (Homo sapiens) (UniProt Q9UQB9); details: Compound concentration 1000.0 nM
[18] = tested on: Mast/stem cell growth factor receptor Kit (Homo sapiens), P10721 [A829P]; details: Compound concentration 1000.0 nM
[19] = tested on: Mast/stem cell growth factor receptor Kit (Homo sapiens), P10721 [D816H]; details: Compound concentration 1000.0 nM
[20] = target: Myosin light chain kinase (Homo sapiens) (UniProt Q32MK0); details: Compound concentration 1000.0 nM
[21] = target: Ephrin type-A receptor 6 (Homo sapiens) (UniProt Q9UF33); details: Compound concentration 1000.0 nM
[22] = target: Tyrosine-protein kinase Fes/Fps (Homo sapiens) (UniProt P07332); details: Compound concentration 1000.0 nM
[23] = target: Alpha-1B adrenergic receptor (Homo sapiens, UniProt P35368); experiment: GPCRScan assay: inhibition of Alpha1B; parameters: radioligand conc. used [nm] 0.3 – 1.0, parental cells stable HEK
[24] = target: Activated CDC42 kinase 1 (Homo sapiens) (UniProt Q07912); details: Compound concentration 1000.0 nM
[25] = target: MAP kinase-activated protein kinase 2 (Homo sapiens) (UniProt P49137); details: Compound concentration 1000.0 nM
[26] = target: Dual specificity mitogen-activated protein kinase kinase 7 (Homo sapiens) (UniProt O14733); details: Compound concentration 1000.0 nM
[27] = target: Fibroblast growth factor receptor 3 (Homo sapiens) (UniProt P22607); details: Compound concentration 1000.0 nM
[28] = target: Tyrosine-protein kinase JAK1 (Homo sapiens) (UniProt P23458); details: Compound concentration 1000.0 nM
[29] = target: Glycogen synthase kinase-3 alpha (Homo sapiens) (UniProt P49840); details: Compound concentration 1000.0 nM
[30] = target: Cyclin-dependent kinase 3 (Homo sapiens) (UniProt Q00526); details: Compound concentration 1000.0 nM
[31] = target: Dual specificity mitogen-activated protein kinase kinase 4 (Homo sapiens) (UniProt P45985); details: Compound concentration 1000.0 nM
[32] = target: Serine/threonine-protein kinase VRK2 (Homo sapiens) (UniProt Q86Y07); details: Compound concentration 1000.0 nM
[33] = tested on: Epidermal growth factor receptor (Homo sapiens), P00533 [T790M]; details: Compound concentration 1000.0 nM
[34] = target: Phosphorylase b kinase regulatory subunit alpha, liver isoform (Homo sapiens) (UniProt P46019); details: Compound concentration 1000.0 nM
[35] = target: Cyclin-dependent kinase-like 3 (Homo sapiens) (UniProt Q8IVW4); details: Compound concentration 1000.0 nM
[36] = target: Leukocyte tyrosine kinase receptor (Homo sapiens) (UniProt P29376); details: Compound concentration 1000.0 nM
[37] = target: TGF-beta receptor type-1 (Homo sapiens) (UniProt P36897); details: Compound concentration 1000.0 nM
[38] = target: Tyrosine-protein kinase ABL1 (Homo sapiens) (UniProt P00519); details: Compound concentration 1000.0 nM
[39] = target: Kappa-type opioid receptor (Homo sapiens, UniProt P41145); details: Compound concentration 10.0 uM

Chain of Serine/threonine-protein kinase PLK3 (Homo sapiens) (Q9H4B4 whole entry, looked up): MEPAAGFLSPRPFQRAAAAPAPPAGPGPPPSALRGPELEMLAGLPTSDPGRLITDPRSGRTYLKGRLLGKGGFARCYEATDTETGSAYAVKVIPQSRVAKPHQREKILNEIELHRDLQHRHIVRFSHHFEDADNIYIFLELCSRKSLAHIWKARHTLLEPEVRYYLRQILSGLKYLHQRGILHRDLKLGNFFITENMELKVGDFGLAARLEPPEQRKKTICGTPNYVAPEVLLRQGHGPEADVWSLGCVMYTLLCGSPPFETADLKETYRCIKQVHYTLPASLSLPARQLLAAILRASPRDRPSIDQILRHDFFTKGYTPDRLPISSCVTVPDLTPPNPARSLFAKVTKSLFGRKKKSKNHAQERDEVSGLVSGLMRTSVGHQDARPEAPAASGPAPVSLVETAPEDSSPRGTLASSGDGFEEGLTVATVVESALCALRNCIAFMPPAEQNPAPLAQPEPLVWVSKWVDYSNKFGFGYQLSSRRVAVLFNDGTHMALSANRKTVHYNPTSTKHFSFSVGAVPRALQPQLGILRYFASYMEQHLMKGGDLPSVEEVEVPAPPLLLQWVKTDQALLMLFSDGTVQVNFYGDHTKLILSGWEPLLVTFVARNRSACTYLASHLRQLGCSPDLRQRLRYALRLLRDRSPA
Chain of Ephrin type-A receptor 6 (Homo sapiens) (Q9UF33 whole entry): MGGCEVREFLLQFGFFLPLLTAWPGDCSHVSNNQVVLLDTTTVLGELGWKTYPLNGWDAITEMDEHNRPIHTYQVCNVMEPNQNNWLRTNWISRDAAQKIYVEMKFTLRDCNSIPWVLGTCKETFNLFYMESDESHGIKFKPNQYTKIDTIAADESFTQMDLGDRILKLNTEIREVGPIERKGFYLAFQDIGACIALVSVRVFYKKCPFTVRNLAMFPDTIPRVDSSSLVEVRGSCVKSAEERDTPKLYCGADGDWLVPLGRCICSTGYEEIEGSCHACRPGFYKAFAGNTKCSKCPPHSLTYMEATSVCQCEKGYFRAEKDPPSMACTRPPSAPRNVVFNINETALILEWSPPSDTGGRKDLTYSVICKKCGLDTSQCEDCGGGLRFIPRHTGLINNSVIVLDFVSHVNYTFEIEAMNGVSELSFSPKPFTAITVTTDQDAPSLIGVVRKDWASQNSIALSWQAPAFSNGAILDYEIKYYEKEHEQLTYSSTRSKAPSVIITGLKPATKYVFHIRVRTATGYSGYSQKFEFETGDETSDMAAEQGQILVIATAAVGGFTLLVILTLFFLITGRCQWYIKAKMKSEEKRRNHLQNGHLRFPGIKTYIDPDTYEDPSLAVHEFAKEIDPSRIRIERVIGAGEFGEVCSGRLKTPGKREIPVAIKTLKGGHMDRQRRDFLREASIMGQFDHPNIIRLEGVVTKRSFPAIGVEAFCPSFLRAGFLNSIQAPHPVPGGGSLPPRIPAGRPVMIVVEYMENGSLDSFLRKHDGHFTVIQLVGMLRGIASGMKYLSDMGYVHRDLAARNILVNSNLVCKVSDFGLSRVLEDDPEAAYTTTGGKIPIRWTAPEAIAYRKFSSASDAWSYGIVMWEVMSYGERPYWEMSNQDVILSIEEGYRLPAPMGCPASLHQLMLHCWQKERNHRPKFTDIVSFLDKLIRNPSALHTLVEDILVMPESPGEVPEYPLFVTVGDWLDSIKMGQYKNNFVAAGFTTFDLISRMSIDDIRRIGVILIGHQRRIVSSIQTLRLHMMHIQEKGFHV
Chain of Fibroblast growth factor receptor 3 (Homo sapiens) (P22607 23-806 limits assumed): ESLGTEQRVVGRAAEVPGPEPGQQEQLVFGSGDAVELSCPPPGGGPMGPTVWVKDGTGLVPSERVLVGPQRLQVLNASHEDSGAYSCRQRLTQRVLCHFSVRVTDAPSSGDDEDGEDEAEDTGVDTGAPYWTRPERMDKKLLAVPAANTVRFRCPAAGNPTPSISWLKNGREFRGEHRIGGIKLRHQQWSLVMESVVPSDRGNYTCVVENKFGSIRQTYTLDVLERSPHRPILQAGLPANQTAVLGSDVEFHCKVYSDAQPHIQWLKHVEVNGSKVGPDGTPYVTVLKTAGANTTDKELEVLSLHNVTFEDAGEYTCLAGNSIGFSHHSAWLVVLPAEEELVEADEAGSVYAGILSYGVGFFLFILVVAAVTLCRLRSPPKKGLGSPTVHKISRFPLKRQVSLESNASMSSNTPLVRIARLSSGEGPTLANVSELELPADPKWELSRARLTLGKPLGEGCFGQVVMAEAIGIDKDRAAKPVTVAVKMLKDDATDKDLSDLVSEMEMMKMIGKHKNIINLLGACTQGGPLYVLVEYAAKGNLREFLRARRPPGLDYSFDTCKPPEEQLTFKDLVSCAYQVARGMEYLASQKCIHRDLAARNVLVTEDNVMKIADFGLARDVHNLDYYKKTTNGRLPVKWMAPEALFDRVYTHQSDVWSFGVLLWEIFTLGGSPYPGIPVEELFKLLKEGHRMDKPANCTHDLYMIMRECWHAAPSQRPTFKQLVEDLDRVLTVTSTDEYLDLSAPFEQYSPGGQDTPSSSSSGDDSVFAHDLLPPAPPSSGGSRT
Chain of 5'-AMP-activated protein kinase catalytic subunit alpha-1 (Homo sapiens) (Q13131 whole entry, looked up): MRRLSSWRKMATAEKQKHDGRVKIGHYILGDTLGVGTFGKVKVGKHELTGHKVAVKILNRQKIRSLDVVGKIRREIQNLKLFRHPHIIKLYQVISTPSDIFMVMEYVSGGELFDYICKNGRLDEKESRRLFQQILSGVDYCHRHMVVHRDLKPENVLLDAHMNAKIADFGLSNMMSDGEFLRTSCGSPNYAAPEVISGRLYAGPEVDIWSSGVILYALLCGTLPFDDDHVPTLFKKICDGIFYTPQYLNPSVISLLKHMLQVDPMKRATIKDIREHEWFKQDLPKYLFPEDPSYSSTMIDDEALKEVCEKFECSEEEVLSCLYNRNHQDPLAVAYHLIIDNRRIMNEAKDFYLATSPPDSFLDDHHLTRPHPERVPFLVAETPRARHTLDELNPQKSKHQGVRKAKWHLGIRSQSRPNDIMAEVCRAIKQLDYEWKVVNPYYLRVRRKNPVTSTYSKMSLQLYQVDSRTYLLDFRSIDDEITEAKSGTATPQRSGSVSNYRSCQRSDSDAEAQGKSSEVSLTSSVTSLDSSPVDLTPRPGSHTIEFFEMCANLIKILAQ
Chain of Activated CDC42 kinase 1 (Homo sapiens) (Q07912 whole entry, looked up): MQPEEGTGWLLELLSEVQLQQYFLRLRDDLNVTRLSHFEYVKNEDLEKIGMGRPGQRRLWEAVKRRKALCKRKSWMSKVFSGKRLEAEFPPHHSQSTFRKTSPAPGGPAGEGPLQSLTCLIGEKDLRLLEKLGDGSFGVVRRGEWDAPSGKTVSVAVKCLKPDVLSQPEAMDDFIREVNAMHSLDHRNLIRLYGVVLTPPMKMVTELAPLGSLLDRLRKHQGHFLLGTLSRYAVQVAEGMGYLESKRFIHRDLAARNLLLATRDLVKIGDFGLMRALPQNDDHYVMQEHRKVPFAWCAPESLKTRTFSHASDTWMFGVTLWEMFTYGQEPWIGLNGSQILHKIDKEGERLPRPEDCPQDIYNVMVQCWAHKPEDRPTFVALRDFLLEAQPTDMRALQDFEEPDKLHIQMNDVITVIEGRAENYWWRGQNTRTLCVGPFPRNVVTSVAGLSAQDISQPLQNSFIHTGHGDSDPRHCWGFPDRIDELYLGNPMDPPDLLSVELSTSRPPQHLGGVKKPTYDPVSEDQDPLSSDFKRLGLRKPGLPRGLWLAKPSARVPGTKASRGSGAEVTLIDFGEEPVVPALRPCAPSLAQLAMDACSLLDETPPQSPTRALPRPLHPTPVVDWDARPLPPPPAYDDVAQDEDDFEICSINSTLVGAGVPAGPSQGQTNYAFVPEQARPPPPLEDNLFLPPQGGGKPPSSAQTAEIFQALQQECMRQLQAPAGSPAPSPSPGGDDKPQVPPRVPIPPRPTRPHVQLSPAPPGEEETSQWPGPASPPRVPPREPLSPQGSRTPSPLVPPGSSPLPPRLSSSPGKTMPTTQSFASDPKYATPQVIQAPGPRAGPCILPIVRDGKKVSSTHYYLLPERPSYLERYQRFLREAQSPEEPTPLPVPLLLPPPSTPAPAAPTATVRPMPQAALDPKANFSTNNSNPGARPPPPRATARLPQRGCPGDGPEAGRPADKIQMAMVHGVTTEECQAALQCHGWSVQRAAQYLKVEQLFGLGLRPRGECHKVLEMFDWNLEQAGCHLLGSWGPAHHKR
Chain of LIM domain kinase 1 (Homo sapiens) (P53667 whole entry, looked up, the tested form may be a part): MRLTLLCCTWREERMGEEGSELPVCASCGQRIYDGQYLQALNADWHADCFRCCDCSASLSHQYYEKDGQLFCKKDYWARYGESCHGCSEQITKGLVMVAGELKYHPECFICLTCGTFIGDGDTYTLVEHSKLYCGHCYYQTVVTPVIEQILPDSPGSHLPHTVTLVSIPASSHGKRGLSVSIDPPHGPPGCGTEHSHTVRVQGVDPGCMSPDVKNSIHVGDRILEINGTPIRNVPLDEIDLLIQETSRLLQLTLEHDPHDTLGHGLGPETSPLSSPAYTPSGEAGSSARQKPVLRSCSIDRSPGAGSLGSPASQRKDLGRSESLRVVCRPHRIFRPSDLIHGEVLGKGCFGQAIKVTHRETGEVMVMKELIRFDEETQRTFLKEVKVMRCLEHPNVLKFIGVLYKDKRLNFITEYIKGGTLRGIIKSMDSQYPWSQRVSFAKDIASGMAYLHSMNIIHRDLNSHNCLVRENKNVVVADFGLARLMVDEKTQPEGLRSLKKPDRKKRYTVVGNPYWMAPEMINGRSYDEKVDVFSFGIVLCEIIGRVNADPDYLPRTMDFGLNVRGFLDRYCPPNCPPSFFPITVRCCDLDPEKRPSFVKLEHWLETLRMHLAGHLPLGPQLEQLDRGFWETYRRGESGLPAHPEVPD
Chain of Cyclin-dependent kinase 3 (Homo sapiens) (Q00526 whole entry, looked up): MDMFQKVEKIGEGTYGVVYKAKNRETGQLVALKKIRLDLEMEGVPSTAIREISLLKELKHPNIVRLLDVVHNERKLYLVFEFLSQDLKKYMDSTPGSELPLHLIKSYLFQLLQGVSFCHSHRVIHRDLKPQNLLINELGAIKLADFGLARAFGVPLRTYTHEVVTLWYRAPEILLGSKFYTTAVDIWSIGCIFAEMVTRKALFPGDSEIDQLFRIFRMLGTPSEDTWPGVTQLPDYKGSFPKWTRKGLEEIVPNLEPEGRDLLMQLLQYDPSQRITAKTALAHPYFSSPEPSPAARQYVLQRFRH

Compound: O=C(O)c1cc(-c2ccc(C3CCNCC3)cc2)c2ccc(-c3ccc(C(F)(F)F)cc3)cc2c1 [PPTN]
- inhibition [1]: 85.8%
- residual activity [2]: 100%
- residual activity [3]: 100%
- inhibition [4]: 30.2%
- residual activity [5]: 100%
- residual activity [6]: 100%
- inhibition [7]: 0.03%
- residual activity [8]: 100%
- residual activity [9]: 100%
- residual activity [10]: 98%
- residual activity [11]: 100%
- residual activity [12]: 100%
- residual activity [13]: 100%
- residual activity [14]: 100%
- residual activity [15]: 100%
- residual activity [16]: 100%
- residual activity [17]: 95%
- residual activity [18]: 100%
- residual activity [19]: 100%
- residual activity [20]: 100%
- residual activity [21]: 100%
- residual activity [22]: 100%
- pKi [23]: 5.49
- residual activity [24]: 100%
- residual activity [25]: 51%
- residual activity [26]: 100%
- residual activity [27]: 100%
- residual activity [28]: 87%
- residual activity [29]: 99%
- residual activity [30]: 100%
- residual activity [31]: 100%
- residual activity [32]: 100%
- residual activity [33]: 96%
- residual activity [34]: 100%
- residual activity [35]: 94%
- residual activity [36]: 100%
- residual activity [37]: 81%
- residual activity [38]: 75%
- inhibition [39]: 41.7%

Compound: Cc1c(C(=O)O)cc(-c2ccc(C3CCNCC3)cc2)c2ccc(-c3ccc(C(F)(F)F)cc3)cc12 [PPTN-NC]
- inhibition [1]: 57.4%
- residual activity [2]: 98%
- residual activity [3]: 100%
- inhibition [4]: 46.4%
- residual activity [5]: 100%
- residual activity [6]: 100%
- inhibition [7]: 7.04%
- residual activity [8]: 100%
- residual activity [9]: 100%
- residual activity [10]: 77%
- residual activity [11]: 100%
- residual activity [12]: 100%
- residual activity [13]: 100%
- residual activity [14]: 100%
- residual activity [15]: 100%
- residual activity [16]: 100%
- residual activity [17]: 92%
- residual activity [18]: 98%
- residual activity [19]: 100%
- residual activity [20]: 94%
- residual activity [21]: 100%
- residual activity [22]: 100%
- pKi [23]: 5.44
- residual activity [24]: 100%
- residual activity [25]: 88%
- residual activity [26]: 100%
- residual activity [27]: 100%
- residual activity [28]: 79%
- residual activity [29]: 100%
- residual activity [30]: 100%
- residual activity [31]: 100%
- residual activity [32]: 100%
- residual activity [33]: 87%
- residual activity [34]: 100%
- residual activity [35]: 100%
- residual activity [36]: 100%
- residual activity [37]: 89%
- residual activity [38]: 82%
- inhibition [39]: 27.9%
